For one assay, the target named is T1, recombinant TMEM97 (Homo sapiens, UniProt Q5BJF2).
T1 construct: Full-length cDNAs encoding for the each protein of interest were subcloned into pcDNA3.1 myc-His A; expressed in transfected cells; host or cells: HEK293T
Kind of assay: In situ gel-based competition of arachidonoyl probe labeling of recombinant TMEM97 in HEK293T cells. It counts as cell-based. As to conditions: TMEM97-transfected HEK293T cells, probe 5 μM, competitor 25 μM. Here is the method:
(§1) Proteomes were diluted to 1.0 mg/mL (total protein concentration) and 50 μL of each proteome was transferred to separate wells in a 96-well plate.
Full-length cDNAs encoding for the each protein of interest were subcloned into pcDNA3.1 myc-His A (Invitrogen) or used directly for transfections if available in a eukaryotic expression vector. HEK293T cells were grown to ˜70% confluence under standard growth conditions before adding the appropriate cDNA [control cells (“mock”) received an equal amount of empty pcDNA3.1 myc-His A vector] and FuGENE 6 or X-tremeGENE HP (Roche) transfection reagent according to the manufacturer's instructions. Cells were incubated for 36-48 hours before labeling in situ or harvesting for in vitro experiments.

Assay [1] has as its system AEA-DA lipid probe targets in Neuro2a cells. To be noted: Neuro2a cells, AEA-DA 5 μM.
For assay [2], the target named is T2, A-DA lipid probe targets in Neuro2a cells (Mus musculus, UniProt P22437).
T2 construct: endogenous in cells; host or cells: Neuro2a
Kind of assay: In situ competitive SILAC profiling with A-DA probe in Neuro2a cells. It counts as cell-based. To be noted: Neuro2a cells, A-DA 5 μM, drug 25 μM.

Assay [3] has as its system membrane and soluble proteins of HEK293T cells. Kind of assay: Gel-based profiling of lipid probe labeling in HEK293T cells. It counts as cell-based, human. As to conditions: probe 20 μM, 30 min, UV. How it is done: For gel-based analysis, after sonicating the membrane pellets in cold DPBS, protein concentrations of each fraction were determined using the BCA protein assay (Bio-Rad) and a microplate reader (Tecan, Infinite F500).
as §1
In some instances, within the arachidonoyl subset of probes, fatty acid- and fatty acid amide-based probes (AA-DA and AEA-DA, respectively) were synthesized and their potential were evaluated to bind and covalently modify (under UV-light exposure) proteins in human cells by gel-based profiling. For example, HEK293T cells were treated with probe (AA-DA or AEA-DA; 20 μM, 30 min), irradiated with UV light (10 min, 4° C.), lysed and the cell proteomes fractionated into membrane and soluble components by centrifugation prior to conjugation to a fluorescent reporter tag (Rh—N3) using CuAAC (FIG. 4A). […] In some instances, this was a consequence of rapid sequestration of this probe into membranes through its metabolic incorporation into phospho/neutral-lipids or into lipidated proteins. […] In some instances, the labeling profile of the AEA-DA probe reflected a limited capacity of the cell to metabolize this amidated probe, which undergoes enzyme-mediated hydrolysis prior to incorporation into other lipids or proteins.

The test system of assay [4] is sterol-binding proteins in HeLa cells. Kind of assay: Gel-based profiling of sterol-binding proteins in HeLa cells. As to conditions: 1-20 μM probe. It counts as cell-based, human. Here is the method:
HeLa cells were grown at 37° C. under a humidified 5% CO2 atmosphere, in a culture medium consisting of high-glucose DMEM (HyClone) supplemented with 10% fetal bovine serum (FBS; Gemini) and penicillin, streptomycin, and glutamine (Cellgro; PSQ). For SILAC experiments, the culture medium was replaced with SILAC DMEM (Thermo) supplemented instead with 10% dialyzed FBS, PSQ, and 100 μg/ml [^13C6, ^15N4] L-arginine-HCl and [^13C6, ^15N2] L-lysine-HCl (Sigma-Aldrich). Cells were passaged at least six times in isotopically labeled media before being utilized for analysis by LC-MS/MS.
To facilitate delivery to cells, all sterols and steroids, including the sterol probes, were complexed in aqueous solution to mβCD (Sigma-Aldrich) for at least twelve hours before dilution in culture medium for labeling. The desired amount of sterol or steroid was added to a saturated aqueous mβCD (38 mM) solution to generate a concentrated stock, and agitated at room temperature overnight; solutions were filtered prior to use the following day. […]
Frozen cell pellets were thawed on ice and lysed in PBS by sonication. Protein concentrations of cell lysates were determined using the BCA protein assay on a microplate reader. […] After 1 hour, samples were mixed with SDS sample loading buffer and loaded without boiling on a 10% SDS-PAGE gel, separated, and imaged using a Hitachi FMBIO-II flatbed fluorescence scanner.

Assay [5] shares this test system. Kind of assay: SILAC MS-based profiling of sterol-binding proteins in HeLa cells. It counts as cell-based, human. As to conditions: probe-enriched proteins.
Method: To facilitate delivery to cells, all sterols and steroids, including the sterol probes, were complexed in aqueous solution to mβCD (Sigma-Aldrich) for at least twelve hours before dilution in culture medium for labeling. The desired amount of sterol or steroid was added to a saturated aqueous mβCD (38 mM) solution to generate a concentrated stock, and agitated at room temperature overnight; solutions were filtered prior to use the following day. Aqueous stock solutions of the trans probe were prepared at 2 mM; the cis and epi probes were prepared at 1.2 mM; cholesterol and other sterols for competition were prepared at 4 mM; steroids were prepared at 5 mM. […]

T1 sequence (Q5BJF2 whole entry, species assumed): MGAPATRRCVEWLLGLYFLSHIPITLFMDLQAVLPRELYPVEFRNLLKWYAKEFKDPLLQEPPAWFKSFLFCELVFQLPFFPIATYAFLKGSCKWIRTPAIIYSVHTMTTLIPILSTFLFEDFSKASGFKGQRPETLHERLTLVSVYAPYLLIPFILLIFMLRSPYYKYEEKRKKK
T2 sequence (P22437 27-602): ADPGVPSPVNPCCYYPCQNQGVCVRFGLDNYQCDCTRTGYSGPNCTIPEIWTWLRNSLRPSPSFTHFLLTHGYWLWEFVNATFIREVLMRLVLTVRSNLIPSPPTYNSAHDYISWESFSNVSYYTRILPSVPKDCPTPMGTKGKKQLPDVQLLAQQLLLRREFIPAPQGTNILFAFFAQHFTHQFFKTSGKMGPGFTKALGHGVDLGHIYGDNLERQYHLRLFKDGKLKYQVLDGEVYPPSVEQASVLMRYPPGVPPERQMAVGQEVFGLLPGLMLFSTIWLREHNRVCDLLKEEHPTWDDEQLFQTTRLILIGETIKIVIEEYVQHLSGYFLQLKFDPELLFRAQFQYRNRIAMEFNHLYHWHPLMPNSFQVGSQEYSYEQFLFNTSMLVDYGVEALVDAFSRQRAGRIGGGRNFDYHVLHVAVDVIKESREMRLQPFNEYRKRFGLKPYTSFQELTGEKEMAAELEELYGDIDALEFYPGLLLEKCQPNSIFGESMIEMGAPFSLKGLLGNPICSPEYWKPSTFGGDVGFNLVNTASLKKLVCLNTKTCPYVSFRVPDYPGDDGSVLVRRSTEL

As for `COc1cc2c(cc1OC)CN(CCc1ccc(NC(=O)c3cccc4c(=O)c5cccc(OC)c5[nH]c34)cc1)CC2` [elacridar, reference compound], the “competition of arachidonoyl probe labeling of recombinant TMEM97” value on recombinant TMEM97 is given as “competition was observed”. For the same molecule, the “concentration blocking lipid probe labeling of FECH, ABCB1B and TMEM97 (as low as)” value in assay [1] came out at 0.5 µM.

As for `CC(C(=O)O)c1ccc(-c2ccccc2)c(F)c1` (racemic) [(±)-flurbiprofen], in assay [2], the “competition of A-DA labeling of PTGS1” value is “competitively blocked”.

As for `C#CCCCC1(CC/C=C\C/C=C\C/C=C\CCCC(=O)O)N=N1` [AA-DA, (5Z,8Z,11Z)-14-(3-(pent-4-yn-1-yl)-3H-diazirin-3-yl)tetradeca-5,8,11-trienoic acid], the “protein labeling profile (membrane vs soluble)” value in assay [3] is listed as “almost exclusive labeling of membrane proteins”.

As to `C#CCCCCOC(=O)CC[C@@H](C)[C@H]1CCC2C3CC4(N=N4)[C@H]4C[C@@H](O)CC[C@]4(C)C3CC[C@@]21C` (stereo partly drawn) [trans-sterol probe, (4R)-hex-5-yn-1-yl 4-((3S,5S,10R,13R,17R)-3-hydroxy-10,13-dimethyl-1,2,3,4,5,7,8,9,10,11,12,13,14,15,16,17-hexadecahydrospiro[cyclopenta[a]phenanthrene-6,3′-diazirin]-17-yl)pentanoate], the “overall protein-labeling profile by gel” value in assay [4] is listed as “stronger overall protein-labeling profiles”. Also, the “mean labeling intensity ratio trans/epi” value in assay [5] (standard deviation 1.2) is reported as 2.1. Besides, in assay [5] (standard deviation=0.57), the “mean labeling intensity ratio trans/cis” value was found to be 0.9.

Values taken from patent publication US10168342B2, “Lipid probes and uses thereof” (THE SCRIPPS RESEARCH INSTITUTE, priority 2015, dated 2019).
